From patent US20100279990A1, “ANTIPROLIFERATIVE COMPOUNDS, COMPOSITIONS AND METHODS OF USE” (RAMOT AT TEL-AVIV UNIVERSITY LTD., priority 2006, published 2010)

Columns and labels:
[1] = tested on: IFN γ secretion in Con-A activated naive mouse splenocytes; assay: IFN γ secretion in Con-A activated naive mouse splenocytes; format: cell-based; details: FIG. 3B
Excerpt: This example illustrates IFN y secretion data obtained by separately administering different concentrations of compound (Ia), paroxetine, citalopram, and ecitalopram to Con-A activated naive mouse splenocytes. The results are depicted in FIG. 3B.

[2] = tested on: LS1034 human colon MDR carcinoma cells; assay: Viability of LS1034 human colon MDR carcinoma cells (FIG. 7B); format: cell-based
Excerpt: This example illustrates cell viability obtained by separately administering different concentrations of compound (Ia), sertraline, doxorubicin, cisplatin, fluorouracil (5-FU), methotrexate (MTX), and vincristin to LS1034 human colon MDR carcinoma cells. The results are depicted in FIG. 7B.

[3] = tested on: CEM/C1 cell-lines (camptothecin resistant human T-cell leukemia); assay: Viability of CEM/C1 cell-line, alamar blue; format: cell-based; details: 1-30 μM
Excerpt: This cell-line is a camptothecin (CPT) resistant derivative of the human T-cell leukemia purchased from ATCC (USA). […] The results are depicted in FIG. 14. Each point represents the mean+/−SEM of 4 determinations.

[4] = tested on: LXF 526L; assay: Monolayer Assay, PI: LXF 526L (Lung); format: cell-based, human
Excerpt: (§1) This example illustrates cell proliferation data in the form of IC50, IC70 and IC90 values obtained by exposure of human cancer cell-lines to compound (Ia). […].

[5] = tested on: LXF 629L; assay: Monolayer Assay, PI: LXF 629L (Lung); format: cell-based, human
Excerpt: as §1

[6] = tested on: LXF H460; assay: Monolayer Assay, PI: LXF H460 (Lung); format: cell-based, human
Excerpt: as §1

[7] = tested on: MAXF 401NL; assay: Monolayer Assay, PI: MAXF 401NL (Breast); format: cell-based, human
Excerpt: as §1

[8] = tested on: MEXF 394NL; assay: Monolayer Assay, PI: MEXF 394NL (Melanoma); format: cell-based, human
Excerpt: as §1

[9] = tested on: MEXF 462NL; assay: Monolayer Assay, PI: MEXF 462NL (Melanoma); format: cell-based, human
Excerpt: as §1

## CN[C@H]1CC[C@@H](c2ccc(Cl)c(Cl)c2)c2ccc(C#CCCCO)cc21 [compound (Ia), (1S-cis)-4-(3,4-dichlorophenyl)-7-(5-hydroxy-1-pentyn-1-yl)-1,2,3,4-tetrahydro-N-methyl-1-naphthalenamine hydroiodide]
[1]
  IFN γ secretion inhibitory activity: greater IFN γ secretion inhibitory activity than paroxetine, citalopram, and ecitalopram
[2]
  effect on resistant cancer cells: has the ability to suppress resistant cancer cells
[3]
  IC50: 8.9 µM
[4]; 2.3 μg/ml
  Test/Control (%): 81%
  Test/Control activity class: − (− (T/C = 50))
[4]; 7.5 μg/ml
  Test/Control (%): 6%
  Test/Control activity class: +++ (+++ (T/C < 10))
[4]; 23. μg/ml
  Test/Control (%): 5%
  Test/Control activity class: +++ (+++ (T/C < 10))
[4]; 75. μg/ml
  Test/Control (%): 4%
  Test/Control activity class: +++ (+++ (T/C < 10))
[4]; .75 μg/ml
  Test/Control (%): 92%
  Test/Control activity class: − (− (T/C = 50))
[5]; 2.3 μg/ml
  Test/Control (%): 94%
  Test/Control activity class: − (− (T/C = 50))
[5]; 7.5 μg/ml
  Test/Control (%): 4%
  Test/Control activity class: +++ (+++ (T/C < 10))
[5]; 23. μg/ml
  Test/Control (%): 1%
  Test/Control activity class: +++ (+++ (T/C < 10))
[5]; 75. μg/ml
  Test/Control (%): 2%
  Test/Control activity class: +++ (+++ (T/C < 10))
[5]; .75 μg/ml
  Test/Control (%): 99%
  Test/Control activity class: − (− (T/C = 50))
[6]; 2.3 μg/ml
  Test/Control (%): 95%
  Test/Control activity class: − (− (T/C = 50))
[6]; 7.5 μg/ml
  Test/Control (%): 2%
  Test/Control activity class: +++ (+++ (T/C < 10))
[6]; 23. μg/ml
  Test/Control (%): 1%
  Test/Control activity class: +++ (+++ (T/C < 10))
[6]; 75. μg/ml
  Test/Control (%): 1%
  Test/Control activity class: +++ (+++ (T/C < 10))
[6]; .75 μg/ml
  Test/Control (%): 101%
  Test/Control activity class: − (− (T/C = 50))
[7]; 2.3 μg/ml
  Test/Control (%): 70%
  Test/Control activity class: − (− (T/C = 50))
[7]; 7.5 μg/ml
  Test/Control (%): 9%
  Test/Control activity class: +++ (+++ (T/C < 10))
[7]; 23. μg/ml
  Test/Control (%): 3%
  Test/Control activity class: +++ (+++ (T/C < 10))
[7]; 75. μg/ml
  Test/Control (%): 3%
  Test/Control activity class: +++ (+++ (T/C < 10))
[7]; .75 μg/ml
  Test/Control (%): 103%
  Test/Control activity class: − (− (T/C = 50))
[8]; 2.3 μg/ml
  Test/Control (%): 59%
  Test/Control activity class: − (− (T/C = 50))
[8]; 7.5 μg/ml
  Test/Control (%): 3%
  Test/Control activity class: +++ (+++ (T/C < 10))
[8]; 23. μg/ml
  Test/Control (%): 2%
  Test/Control activity class: +++ (+++ (T/C < 10))
[8]; 75. μg/ml
  Test/Control (%): 2%
  Test/Control activity class: +++ (+++ (T/C < 10))
[8]; .75 μg/ml
  Test/Control (%): 99%
  Test/Control activity class: − (− (T/C = 50))
[9]; 2.3 μg/ml
  Test/Control (%): 107%
  Test/Control activity class: − (− (T/C = 50))
[9]; 7.5 μg/ml
  Test/Control (%): 20%
  Test/Control activity class: ++ (++ (10 <= T/C < 30))
[9]; 23. μg/ml
  Test/Control (%): 2%
